The values below come from ChEMBL document CHEMBL4732128, “Methylsulfanylpyridine based diheteroaryl isocombretastatin analogs as potent anti-proliferative agents” (Eur J Med Chem, 2021).

Tested on in the first assay: not listed separately
Description: Inhibition of bovine brain tubulin polymerization incubated for 30 mins by turbidimetric assay. The class given is tissue-based, Bos taurus.
Details: not given
With `CSc1cc(C(O)c2ccc(N(C)C)nc2)cc(SC)n1` (configuration not stated), the IC50 was above 5000 nM.
Turning to `CSc1cc(C(=NO)c2ccc3c(ccn3C)c2)cc(SC)n1`, inhibition was half-maximal at 1000 nM (IC50).
`C=C(c1cc(Cl)nc(SC)c1)c1ccc2c(c1)c(C(N)=O)cn2C` displayed an IC50 of 2300 nM.
Compound `CSc1cc(C(=O)c2ccc3c(ccn3C)c2)cc(SC)n1` registered an IC50 of 1700 nM.
With `CSc1cc(C(O)c2ccc(N(C)C)cc2)cc(SC)n1` (configuration not stated), the IC50 was above 5000 nM.
Still for that read-out and setting: in the case of `C=C(c1cc(Cl)nc(SC)c1)c1ccc2c(c1)c(C(=O)O)cn2C` it was above 5000 nM; in that of `COc1ccc(C(=O)c2cc(Cl)nc(SC)c2)cc1`, above 5000 nM.
`CSc1cc(C(=NO)c2ccc3ccccc3c2)cc(SC)n1` showed an IC50 above 5000 nM.
On to `COc1ccc(S(=O)(=O)Nc2cccnc2Nc2ccc(O)cc2)cc1` [ABT-751], for which the IC50 came out at 4000 nM.
Compound `CSc1cc(C(O)c2ccc3c(ccn3C)c2)cc(SC)n1` (configuration not stated) had an IC50 above 5000 nM.
Take `CSc1cc(C(=O)c2ccc3c(c2)c(C=O)cn3C)cc(Cl)n1`: the IC50 is above 5000 nM.
Turning to `CSc1cc(C(=O)c2ccc3ccccc3c2)cc(SC)n1`, the IC50 is above 5000 nM.
In turn, `COc1ccc(C(C)c2cc(SC)nc(SC)c2)cc1` (configuration not stated) had an IC50 above 5000 nM.
As for `CSc1cc(/C=C\c2ccc3c(ccn3C)c2)cc(SC)n1`, the IC50 was above 5000 nM.
For the compound `CCOC(=O)C(O)(c1ccc(OC)cc1)c1cc(Cl)nc(SC)c1` (configuration not stated), the IC50 was above 5000 nM.
`C=C(c1cc(SC)nc(SC)c1)c1ccc2c(ccn2C)c1` showed an IC50 of 1100 nM.
On to `COc1ccc(/C=C\c2cc(SC)nc(SC)c2)cc1`, for which the IC50 came out at 3800 nM.
Consider `COc1ccc(/C=C\c2cc(OC)c(OC)c(OC)c2)cc1O` [COMBRETASTATIN A4], for which the IC50 turned out to be 2800 nM.
Take `C=C(c1cc(SC)nc(SC)c1)c1ccc2c(c1)c(C(N)=O)cn2C`: half-maximal inhibition (IC50) was put at 2400 nM.
Consider `CSc1cc(C(=O)c2ccc3c(ccn3C)c2)cc(Cl)n1`, for which the IC50 came out at 2400 nM.

In another assay the test system is HeLa. The assay can be described thus: Antiproliferative activity against human HeLa cells assessed as inhibition of cell growth after 72 hrs by XTT assay. The class given is functional, cell-based.
Details: not given
(Formazan colour is commonly taken as a measure of viable cells.)
With `CSc1cc(C(O)c2ccc(N(C)C)nc2)cc(SC)n1` (configuration not stated), the IC50 was at least 10 nM.
`CSc1cc(C(=NO)c2ccc3c(ccn3C)c2)cc(SC)n1`: the IC50 came out at 590 nM.
With `C=C(c1cc(Cl)nc(SC)c1)c1ccc2c(c1)c(C(N)=O)cn2C`, the IC50 is 82 nM.
In the case of `CSc1cc(C(=O)c2ccc3c(ccn3C)c2)cc(SC)n1`, the IC50 stood at 233 nM.
The same measure, in the same setting: in the case of `CSc1cc(C(O)c2ccc(N(C)C)cc2)cc(SC)n1` (configuration not stated) it was at least 10 nM.
For the compound `C=C(c1cc(Cl)nc(SC)c1)c1ccc2c(c1)c(C(=O)O)cn2C`, the IC50 is at least 10 nM.
As to `COc1ccc(C(=O)c2cc(Cl)nc(SC)c2)cc1`, the IC50 was at least 10000 nM.
Take `CSc1cc(C(=NO)c2ccc3ccccc3c2)cc(SC)n1`: the IC50 was at least 10 nM.
Regarding `COc1ccc(S(=O)(=O)Nc2cccnc2Nc2ccc(O)cc2)cc1` [ABT-751], the IC50 was determined as 388 nM.
On to `CSc1cc(C(O)c2ccc3c(ccn3C)c2)cc(SC)n1` (configuration not stated), for which the concentration for half-maximal inhibition (IC50) was at least 10000 nM.
Turning to `CSc1cc(C(=O)c2ccc3c(c2)c(C=O)cn3C)cc(Cl)n1`, the IC50 was at least 10 nM.
Regarding `CSc1cc(C(=O)c2ccc3ccccc3c2)cc(SC)n1`, the IC50 is at least 10 nM.
`COc1ccc(C(C)c2cc(SC)nc(SC)c2)cc1` (configuration not stated): the IC50 is at least 10000 nM.
Take `CSc1cc(/C=C\c2ccc3c(ccn3C)c2)cc(SC)n1`: the IC50 was at least 10 nM.
With `CCOC(=O)C(O)(c1ccc(OC)cc1)c1cc(Cl)nc(SC)c1` (configuration not stated), the IC50 was at least 10 nM.
On to `C=C(c1cc(SC)nc(SC)c1)c1ccc2c(ccn2C)c1`, for which the IC50 was determined as 520 nM.
On to `COc1ccc(/C=C\c2cc(SC)nc(SC)c2)cc1`, for which the IC50 is at least 10 nM.
Consider `C=C(c1cc(SC)nc(SC)c1)c1ccc2c(c1)c(C(N)=O)cn2C`, for which the IC50 is 601 nM.
On to `CSc1cc(C(=O)c2ccc3c(ccn3C)c2)cc(Cl)n1`, for which the IC50 turned out to be 388 nM.

A further assay concerns HL-60. The assay can be described thus: Antiproliferative activity against human HL-60 cells assessed as inhibition of cell growth after 72 hrs by XTT assay. The class given is functional, cell-based. To be noted: HL-60, 72 h.
On to `CSc1cc(C(O)c2ccc(N(C)C)nc2)cc(SC)n1` (configuration not stated), for which the IC50 is at least 10 nM.
Consider `CSc1cc(C(=NO)c2ccc3c(ccn3C)c2)cc(SC)n1`, for which the IC50 is 240 nM.
Consider `C=C(c1cc(Cl)nc(SC)c1)c1ccc2c(c1)c(C(N)=O)cn2C`, for which the IC50 came out at 44 nM.
For the compound `CSc1cc(C(=O)c2ccc3c(ccn3C)c2)cc(SC)n1`, the IC50 was found to be 222 nM.
On the same count and under the same terms, the value for `CSc1cc(C(O)c2ccc(N(C)C)cc2)cc(SC)n1` (configuration not stated) was at least 10 nM.
For the compound `C=C(c1cc(Cl)nc(SC)c1)c1ccc2c(c1)c(C(=O)O)cn2C`, the IC50 is at least 10 nM.
As for `COc1ccc(C(=O)c2cc(Cl)nc(SC)c2)cc1`, the IC50 is at least 10000 nM.
As for `CSc1cc(C(=NO)c2ccc3ccccc3c2)cc(SC)n1`, the IC50 is at least 10 nM.
With `CSc1cc(C(O)c2ccc3c(ccn3C)c2)cc(SC)n1` (configuration not stated), the IC50 was at least 10000 nM.
As for `CSc1cc(C(=O)c2ccc3c(c2)c(C=O)cn3C)cc(Cl)n1`, the IC50 is at least 10 nM.
For `CSc1cc(C(=O)c2ccc3ccccc3c2)cc(SC)n1`, the IC50 is at least 10 nM.
Consider `COc1ccc(C(C)c2cc(SC)nc(SC)c2)cc1` (configuration not stated), for which the IC50 is at least 10000 nM.
On to `CSc1cc(/C=C\c2ccc3c(ccn3C)c2)cc(SC)n1`, for which the IC50 was at least 10 nM.
With `CCOC(=O)C(O)(c1ccc(OC)cc1)c1cc(Cl)nc(SC)c1` (configuration not stated), the IC50 is at least 10 nM.
Regarding `C=C(c1cc(SC)nc(SC)c1)c1ccc2c(ccn2C)c1`, the IC50 came to 717 nM.
Still for that read-out and setting: in the case of `COc1ccc(/C=C\c2cc(SC)nc(SC)c2)cc1` it was at least 10 nM; in that of `C=C(c1cc(SC)nc(SC)c1)c1ccc2c(c1)c(C(N)=O)cn2C`, 223 nM.
On the same count and under the same terms, in the case of `CSc1cc(C(=O)c2ccc3c(ccn3C)c2)cc(Cl)n1` it was 490 nM.

The next assay concerns HT-29. Description: Antiproliferative activity against human HT-29 cells assessed as inhibition of cell growth after 72 hrs by XTT assay. The assay is classed as functional, cell-based. To be noted: HT-29, 72 h.
For the compound `CSc1cc(C(O)c2ccc(N(C)C)nc2)cc(SC)n1` (configuration not stated), the IC50 is at least 10 nM.
Same read-out and setting: the value for `CSc1cc(C(=NO)c2ccc3c(ccn3C)c2)cc(SC)n1` was 745 nM; that for `C=C(c1cc(Cl)nc(SC)c1)c1ccc2c(c1)c(C(N)=O)cn2C` was 38 nM.
Regarding `CSc1cc(C(=O)c2ccc3c(ccn3C)c2)cc(SC)n1`, the concentration for half-maximal inhibition (IC50) turned out to be 549 nM.
On to `CSc1cc(C(O)c2ccc(N(C)C)cc2)cc(SC)n1` (configuration not stated), for which the IC50 was at least 10 nM.
On the same count and under the same terms, in the case of `C=C(c1cc(Cl)nc(SC)c1)c1ccc2c(c1)c(C(=O)O)cn2C` it was at least 10 nM; in that of `COc1ccc(C(=O)c2cc(Cl)nc(SC)c2)cc1`, at least 10000 nM; in that of `CSc1cc(C(=NO)c2ccc3ccccc3c2)cc(SC)n1`, at least 10 nM.
As for `COc1ccc(S(=O)(=O)Nc2cccnc2Nc2ccc(O)cc2)cc1` [ABT-751], the IC50 worked out at 514 nM.
For `CSc1cc(C(O)c2ccc3c(ccn3C)c2)cc(SC)n1` (configuration not stated), the IC50 was at least 10 nM.
On to `CSc1cc(C(=O)c2ccc3c(c2)c(C=O)cn3C)cc(Cl)n1`, for which the IC50 is at least 10 nM.
For the compound `CSc1cc(C(=O)c2ccc3ccccc3c2)cc(SC)n1`, the half-maximal inhibitory concentration (IC50) was at least 10 nM.
Consider `COc1ccc(C(C)c2cc(SC)nc(SC)c2)cc1` (configuration not stated), for which the IC50 was at least 10000 nM.
For the compound `CSc1cc(/C=C\c2ccc3c(ccn3C)c2)cc(SC)n1`, the concentration for half-maximal inhibition (IC50) is 633 nM.
In the case of `CCOC(=O)C(O)(c1ccc(OC)cc1)c1cc(Cl)nc(SC)c1` (configuration not stated), the IC50 is at least 10 nM.
In the case of `C=C(c1cc(SC)nc(SC)c1)c1ccc2c(ccn2C)c1`, the IC50 amounted to 249 nM.
For the compound `COc1ccc(/C=C\c2cc(SC)nc(SC)c2)cc1`, the IC50 is at least 10 nM.
Turning to `COc1ccc(/C=C\c2cc(OC)c(OC)c(OC)c2)cc1O` [COMBRETASTATIN A4], the IC50 came out at 305 nM.
`C=C(c1cc(SC)nc(SC)c1)c1ccc2c(c1)c(C(N)=O)cn2C`: the IC50 is 276 nM.
Consider `CSc1cc(C(=O)c2ccc3c(ccn3C)c2)cc(Cl)n1`, for which the IC50 is at least 10 nM.

In general, IC50 refers to the concentration needed to halve the response being measured.
